{
  "source": "patent US7739055B2",
  "about": "“Methods and systems for generating and evaluating peptides” (priority 2005, dated 2010)",
  "tested_on": "B. cereus",
  "note": "Where a SMILES comes first, the peptide text is derived from it.",
  "data": [
    {"smiles": "CC[C@H](C)[C@H](NC(=O)[C@H](CC(C)C)NC(=O)[C@H](C)NC(=O)[C@@H]1CCCN1C(=O)[C@H](C)NC(=O)[C@@H](NC(=O)[C@H](CCCCN)NC(=O)[C@@H](N)CCCNC(=N)N)C(C)C)C(=O)N[C@@H](CCCCN)C(=O)N[C@@H](CO)C(=O)N[C@@H](Cc1ccccc1)C(=O)N[C@H](C(=O)N[C@@H](Cc1ccccc1)C(=O)N[C@@H](CC(C)C)C(=O)N[C@@H](Cc1ccccc1)C(=O)N[C@@H](CCCCN)C(=O)N[C@@H](Cc1ccccc1)C(=O)N[C@@H](CCCCN)C(=O)N[C@@H](CCCCN)C(=O)NCC(=O)O)C(C)C", "note": "[Shuffled 51] (H-RKVAPALIKSFVFLFKFKKG-OH; N-terminus and C-terminus assumed)", "values": [
      {"measurement": "MIC B. cereus", "value": "+ (key: +: MIC greater than 256 ug/mL; ++: MIC greater than 128 ug/mL, not sufficiently soluble to test as 256 ug/mL)"}
    ]}
  ]
}
